Experimental data reported in PubChem BioAssay AID1259407 (Chemical Carcinogenesis Research Information System (CCRIS), 2018).
The source made the active and inactive calls. The rule behind the calls is not given here.

Tested on: CCRIS mutagenicity, Ames/micronucleus/aberration tests
Assay: CCRIS mutagenicity studies
[1] = Test System: AMES SALMONELLA TYPHIMURIUM, Strain/Indicator: TA98, Metabolic Activation: HAMSTER, LIVER, S-9, AROCLOR 1254 (30%), Method: PREINCUBATION
[2] = Test System: AMES SALMONELLA TYPHIMURIUM, Strain/Indicator: TA98, Metabolic Activation: NONE, Method: PREINCUBATION
[3] = Test System: AMES SALMONELLA TYPHIMURIUM, Strain/Indicator: TA98, Metabolic Activation: RAT, LIVER, S-9, AROCLOR 1254 (30%), Method: PREINCUBATION
[4] = Test System: AMES SALMONELLA TYPHIMURIUM, Strain/Indicator: TA100, Metabolic Activation: HAMSTER, LIVER, S-9, AROCLOR 1254 (30%), Method: PREINCUBATION
[5] = Test System: AMES SALMONELLA TYPHIMURIUM, Strain/Indicator: TA100, Metabolic Activation: NONE, Method: PREINCUBATION
[6] = Test System: AMES SALMONELLA TYPHIMURIUM, Strain/Indicator: TA100, Metabolic Activation: RAT, LIVER, S-9, AROCLOR 1254 (30%), Method: PREINCUBATION

For `OC[P+](CO)(CO)CO`, the mutagenic call (End Point: IN VITRO CHROMOSOMAL ABERRATIONS, Test System: CHO CELLS, Metabolic Activation: NONE) was “active; positive”, the mutagenic call (Test System: AMES SALMONELLA TYPHIMURIUM, Strain/Indicator: TA97, Metabolic Activation: HAMSTER, LIVER, S-9, AROCLOR 1254 (10%), Method: PREINCUBATION) was “inactive; negative” and the mutagenic call (Test System: AMES SALMONELLA TYPHIMURIUM, Strain/Indicator: TA97, Metabolic Activation: HAMSTER, LIVER, S-9, AROCLOR 1254 (30%), Method: PREINCUBATION) was “inactive; negative”. For the same molecule, the mutagenic call (Test System: AMES SALMONELLA TYPHIMURIUM, Strain/Indicator: TA97, Metabolic Activation: NONE, Method: PREINCUBATION) was “inactive; negative”, the mutagenic call (Test System: AMES SALMONELLA TYPHIMURIUM, Strain/Indicator: TA97, Metabolic Activation: RAT, LIVER, S-9, AROCLOR 1254 (10%), Method: PREINCUBATION) was “inactive; negative” and the mutagenic call (Test System: AMES SALMONELLA TYPHIMURIUM, Strain/Indicator: TA97, Metabolic Activation: RAT, LIVER, S-9, AROCLOR 1254 (30%), Method: PREINCUBATION) was “inactive; negative”. The mutagenic call (Test System: AMES SALMONELLA TYPHIMURIUM, Strain/Indicator: TA98, Metabolic Activation: HAMSTER, LIVER, S-9, AROCLOR 1254 (10%), Method: PREINCUBATION) was “inactive; negative”, the mutagenic call [1] was “inactive; negative” and the mutagenic call (Test System: AMES SALMONELLA TYPHIMURIUM, Strain/Indicator: TA98, Metabolic Activation: HAMSTER, LIVER, S-9, AROCLOR 1254, Method: PREINCUBATION) was “inactive; negative”. The mutagenic call [2] was “inactive; negative”, the mutagenic call (Test System: AMES SALMONELLA TYPHIMURIUM, Strain/Indicator: TA98, Metabolic Activation: RAT, LIVER, S-9, AROCLOR 1254 (10%), Method: PREINCUBATION) was “inactive; negative” and the mutagenic call [3] was “inactive; negative”. For the same molecule, the mutagenic call (Test System: AMES SALMONELLA TYPHIMURIUM, Strain/Indicator: TA98, Metabolic Activation: RAT, LIVER, S-9, AROCLOR 1254, Method: PREINCUBATION) was “inactive; negative”, the mutagenic call (Test System: AMES SALMONELLA TYPHIMURIUM, Strain/Indicator: TA100, Metabolic Activation: HAMSTER, LIVER, S-9, AROCLOR 1254 (10%), Method: PREINCUBATION) was “inactive; negative” and the mutagenic call [4] was “inactive; negative”. The mutagenic call (Test System: AMES SALMONELLA TYPHIMURIUM, Strain/Indicator: TA100, Metabolic Activation: HAMSTER, LIVER, S-9, AROCLOR 1254, Method: PREINCUBATION) was “inactive; negative”, the mutagenic call [5] was “inactive; negative” and the mutagenic call (Test System: AMES SALMONELLA TYPHIMURIUM, Strain/Indicator: TA100, Metabolic Activation: RAT, LIVER, S-9, AROCLOR 1254 (10%), Method: PREINCUBATION) was “inactive; negative”. For the same molecule, the mutagenic call [6] was “inactive; negative”, the mutagenic call (Test System: AMES SALMONELLA TYPHIMURIUM, Strain/Indicator: TA100, Metabolic Activation: RAT, LIVER, S-9, AROCLOR 1254, Method: PREINCUBATION) was “inactive; negative” and the mutagenic call (Test System: AMES SALMONELLA TYPHIMURIUM, Strain/Indicator: TA1535, Metabolic Activation: HAMSTER, LIVER, S-9, AROCLOR 1254 (10%), Method: PREINCUBATION) was “inactive; negative”. The mutagenic call (Test System: AMES SALMONELLA TYPHIMURIUM, Strain/Indicator: TA1535, Metabolic Activation: HAMSTER, LIVER, S-9, AROCLOR 1254 (30%), Method: PREINCUBATION) was “inactive; negative”, the mutagenic call (Test System: AMES SALMONELLA TYPHIMURIUM, Strain/Indicator: TA1535, Metabolic Activation: HAMSTER, LIVER, S-9, AROCLOR 1254, Method: PREINCUBATION) was “inactive; negative” and the mutagenic call (Test System: AMES SALMONELLA TYPHIMURIUM, Strain/Indicator: TA1535, Metabolic Activation: NONE, Method: PREINCUBATION) was “inactive; negative”. The mutagenic call (Test System: AMES SALMONELLA TYPHIMURIUM, Strain/Indicator: TA1535, Metabolic Activation: RAT, LIVER, S-9, AROCLOR 1254 (10%), Method: PREINCUBATION) was “inactive; negative”, the mutagenic call (Test System: AMES SALMONELLA TYPHIMURIUM, Strain/Indicator: TA1535, Metabolic Activation: RAT, LIVER, S-9, AROCLOR 1254 (30%), Method: PREINCUBATION) was “inactive; negative” and the mutagenic call (Test System: AMES SALMONELLA TYPHIMURIUM, Strain/Indicator: TA1535, Metabolic Activation: RAT, LIVER, S-9, AROCLOR 1254, Method: PREINCUBATION) was “inactive; negative”. For the same molecule, the mutagenic call (Test System: AMES SALMONELLA TYPHIMURIUM, Strain/Indicator: TA1537, Metabolic Activation: HAMSTER, LIVER, S-9, AROCLOR 1254 (10%), Method: PREINCUBATION) was “inactive; negative”, the mutagenic call (Test System: AMES SALMONELLA TYPHIMURIUM, Strain/Indicator: TA1537, Metabolic Activation: HAMSTER, LIVER, S-9, AROCLOR 1254 (30%), Method: PREINCUBATION) was “inactive; negative” and the mutagenic call (Test System: AMES SALMONELLA TYPHIMURIUM, Strain/Indicator: TA1537, Metabolic Activation: HAMSTER, LIVER, S-9, AROCLOR 1254, Method: PREINCUBATION) was “inactive; negative”. The mutagenic call (Test System: AMES SALMONELLA TYPHIMURIUM, Strain/Indicator: TA1537, Metabolic Activation: NONE, Method: PREINCUBATION) was “inactive; negative”, the mutagenic call (Test System: AMES SALMONELLA TYPHIMURIUM, Strain/Indicator: TA1537, Metabolic Activation: RAT, LIVER, S-9, AROCLOR 1254 (10%), Method: PREINCUBATION) was “inactive; negative” and the mutagenic call (Test System: AMES SALMONELLA TYPHIMURIUM, Strain/Indicator: TA1537, Metabolic Activation: RAT, LIVER, S-9, AROCLOR 1254 (30%), Method: PREINCUBATION) was “inactive; negative”. For the same molecule, the mutagenic call (Test System: AMES SALMONELLA TYPHIMURIUM, Strain/Indicator: TA1537, Metabolic Activation: RAT, LIVER, S-9, AROCLOR 1254, Method: PREINCUBATION) was “inactive; negative” and the mutagenic call (Test System: MOUSE LYMPHOMA, Strain/Indicator: L5178Y (TK+/TK-), Metabolic Activation: NONE, Method: SUSPENSION/PLATE) was “active; positive”.
For `Nc1ccc(N=Nc2ccccc2)cc1`, the mutagenic call [1] was “active; positive”, the mutagenic call [2] was “inactive; negative” and the mutagenic call (Test System: AMES SALMONELLA TYPHIMURIUM, Strain/Indicator: TA98, Metabolic Activation: NONE, Method: STANDARD PLATE) was “inactive; negative”. The mutagenic call (Test System: AMES SALMONELLA TYPHIMURIUM, Strain/Indicator: TA98, Metabolic Activation: RAT, LIVER, MICROSOMES, 4-AMINOAZOBENZENE, Method: PREINCUBATION) was “inactive; negative”, the mutagenic call (Test System: AMES SALMONELLA TYPHIMURIUM, Strain/Indicator: TA98, Metabolic Activation: RAT, LIVER, MICROSOMES, AROCLOR 1254, Method: PREINCUBATION) was “inactive; negative” and the mutagenic call (Test System: AMES SALMONELLA TYPHIMURIUM, Strain/Indicator: TA98, Metabolic Activation: RAT, LIVER, MICROSOMES, Method: PREINCUBATION) was “inactive; negative”. For the same molecule, the mutagenic call [3] was “active; positive”, the mutagenic call (Test System: AMES SALMONELLA TYPHIMURIUM, Strain/Indicator: TA98, Metabolic Activation: RAT, LIVER, S-9, AROCLOR 1254, Method: STANDARD PLATE) was “active; positive” and the mutagenic call (Test System: AMES SALMONELLA TYPHIMURIUM, Strain/Indicator: TA98, Metabolic Activation: RAT, LIVER, S-9, KC500 OR PHENOBARBITAL, Method: LIQUID SUSPENSION) was “active; positive”. For the same molecule, the mutagenic call (Test System: AMES SALMONELLA TYPHIMURIUM, Strain/Indicator: TA98, Metabolic Activation: RAT, LIVER, S-9, PCB, Method: PREINCUBATION) was “active; positive”, the mutagenic call [4] was “active; positive” and the mutagenic call [5] was “inactive; negative”. For the same molecule, the mutagenic call (Test System: AMES SALMONELLA TYPHIMURIUM, Strain/Indicator: TA100, Metabolic Activation: NONE, Method: STANDARD PLATE) was “inactive; negative”, the mutagenic call [6] was “inactive; negative” and the mutagenic call (Test System: AMES SALMONELLA TYPHIMURIUM, Strain/Indicator: TA100, Metabolic Activation: RAT, LIVER, S-9, AROCLOR 1254, Method: STANDARD PLATE) was “active; positive”. The mutagenic call (Test System: AMES SALMONELLA TYPHIMURIUM, Strain/Indicator: TA100, Metabolic Activation: RAT, LIVER, S-9, KC500 OR PHENOBARBITAL, Method: LIQUID SUSPENSION) was “active; positive”, the mutagenic call (Test System: AMES SALMONELLA TYPHIMURIUM, Strain/Indicator: TA100, Metabolic Activation: RAT, LIVER, S-9, PCB, Method: PREINCUBATION) was “active; positive” and the mutagenic call (Test System: AMES SALMONELLA TYPHIMURIUM, Strain/Indicator: TA1538, Metabolic Activation: RAT, LIVER, S-9, AROCLOR 1254, Method: STANDARD PLATE) was “active; positive”. The mutagenic call (Test System: UDS RODENT HEPATOCYTES, Strain/Indicator: THY INCORP (NON-S-PHASE), Method: AUTORADIOGRAPHY) was “active; positive”.
